What was measured:
[1] = biological target: NA (H1N1,09) (Influenza A virus, UniProt C3W5S3); assay: biochemical; conditions: for Inhibition rate (%) NA(H1N1,09) / inhibition at 200 µM: 200 μM of each compound, n = 3, means ± standard deviation; for IC50: in vitro NA inhibition assay (n = 3); for inhibition at 200 µM: read-out: Inhibition rate (%) NA(H1N1,09)
[2] = tested on: NA (H7N9); assay type: biochemical; conditions: 200 µM
[3] = biological target: NA (H5N1) (Influenza A virus, UniProt K0C216); assay: biochemical; conditions: for Inhibition rate (%) NA (H5N1): 200 µM; for inhibition at 200 µM: read-out: Inhibition rate (%) NA (H5N1)
[4] = tested on: MCF7 cells
[5] = in vitro; conditions: human

| Compound | Inhibition rate (%) NA(H1N1,09) [1] [%] | IC50 [1] [µM] | Inhibition rate (%) NA(H7N9) [2] [%] | IC50 [3] [µM] | Inhibition rate (%) NA (H5N1) [3] [%] | CC50 [4] [µM] | CC50 [5] [µM] | inhibition at 200 µM [1] [%] | inhibition at 200 µM [3] [%] |
| --- | --- | --- | --- | --- | --- | --- | --- | --- | --- |
| CC(=O)O[C@H]1C[C@H]([C@H](C)CC/C=C(\C)C(=O)O)[C@@]2(C)CC=C3C(=CC[C@H]4C(C)(C)[C@@H](O)CC[C@]34C)[C@]12C [Compound 3, Ganoderic acid T-N] | 72.0 ± 5.5 | 42 ± 13.5 | 25.6 ± 1.6 | 2.7 ± 0.4 | 91.1 ± 0.8 | 24.4 ± 2.4 | – | – | – |
| C/C(=C/CC[C@@H](C)[C@H]1CC[C@@]2(C)C3=CC[C@H]4C(C)(C)C(=O)CC[C@]4(C)C3=CC[C@]12C)C(=O)O [Compound 4, Ganoderic acid Sz] | 60.1 ± 4.8 | 101 ± 35.9 | 17.8 ± 4.0 | – | 0.0 | 50.6 ± 0.1 | – | – | – |
| C/C(=C/CC[C@@H](C)[C@H]1CC[C@@]2(C)C3=CC[C@H]4C(C)(C)C(=O)CC[C@]4(C)C3=CC[C@]12C)C(=O)O [Compound 5, Ganoderic acid S] | – | 80.5 ± 24.9 | 31.9 ± 2.3 | – | – | – | 80.9 ± 6.8 | 69.4 ± 2.3 | 86.7 ± 0.5 |
| C/C(=C\CC[C@@H](C)[C@H]1CC[C@@]2(C)C3=CC[C@H]4C(C)(C)[C@@H](O)CC[C@]4(C)C3=CC[C@]12C)C(=O)O [Compound 6, Ganoderic acid Y] | – | – | 17.8 ± 1.5 | – | – | – | 18 ± 1.3 | 63 ± 2.5 | 78.2 ± 3.2 |
| C[C@H](CC(=O)C[C@@H](C)[C@H]1C[C@H](O)[C@@]2(C)C3=C(C(=O)C[C@]12C)[C@@]1(C)CCC(=O)C(C)(C)[C@@H]1C[C@@H]3O)C(=O)O [Compound 7, Ganoderic acid A] | – | – | 6.3 ± 2.2 | – | – | – | > 200 | 5 ± 5.4 | 31.4 ± 7.3 |
| C/C(=C\C(=O)CC(C)C(=O)O)[C@H]1C[C@H](O)[C@@]2(C)C3=C(C(=O)C[C@]12C)[C@@]1(C)CCC(=O)C(C)(C)[C@@H]1C[C@@H]3O (stereo partly shown) [Compound 8, Ganoderenic acid A] | – | – | 23.3 ± 3.1 | – | – | – | > 200 | 35.3 ± 3.7 | 35.9 ± 7.7 |
| C[C@H](CC(=O)C[C@@H](C)[C@H]1C[C@H](O)[C@@]2(C)C3=C(C(=O)C[C@]12C)[C@@]1(C)CC[C@H](O)C(C)(C)[C@@H]1C[C@@H]3O)C(=O)O [Compound 9, Ganoderic acid C2] | – | – | 27.5 ± 2.3 | – | – | – | > 200 | 32.4 ± 4.5 | 60.8 ± 4.3 |
| CC(CC(=O)C[C@@H](C)[C@H]1CC(=O)[C@@]2(C)C3=C(C(=O)C[C@]12C)[C@@]1(C)CC[C@H](O)C(C)(C)[C@@H]1CC3=O)C(=O)O (stereo partly shown) [Compound 10, Ganoderic acid AM1] | – | – | 14.1 ± 5.1 | – | – | – | > 200 | 28.3 ± 6.2 | 75.2 ± 2.3 |
| CC(=O)O[C@@H]1C(=O)C2=C([C@@H](O)C[C@H]3C(C)(C)[C@@H](O)CC[C@]23C)[C@]2(C)C(=O)C[C@H]([C@H](C)CC(=O)CC(C)C(=O)O)[C@@]12C (stereo partly shown) [Compound 11, Ganoderic acid K] | – | – | 28.5 ± 1.9 | – | – | – | > 200 | 28.8 ± 2 | 57.7 ± 10.9 |
| C/C(=C\C(=O)CC(C)C(=O)O)[C@H]1CC(=O)[C@@]2(C)C3=C(C(=O)C[C@]12C)[C@@]1(C)CC[C@H](O)C(C)(C)[C@@H]1CC3=O (stereo partly shown) [Compound 12, Ganoderenic acid H] | – | – | 38.6 ± 6.2 | – | – | – | > 200 | 58 ± 3 | 77.7 ± 3.9 |
| CC(=O)O[C@@H]1C(=O)C2=C(C(=O)C[C@H]3C(C)(C)[C@@H](O)CC[C@]23C)[C@]2(C)C(=O)C[C@H]([C@H](C)CC(=O)CC(C)C(=O)O)[C@@]12C (stereo partly shown) [Compound 13, Ganoderic acid H] | – | – | 27.2 ± 3.2 | – | – | – | > 200 | 35 ± 4.5 | 64.1 ± 4.5 |
| CC(CC(=O)C[C@@H](C)[C@H]1CC(=O)[C@@]2(C)C3=C(C(=O)C[C@]12C)[C@@]1(C)CC[C@H](O)C(C)(C)[C@@H]1C[C@@H]3O)C(=O)O (stereo partly shown) [Compound 14, Ganoderic acid B] | – | – | 5.5 ± 0.4 | – | – | – | > 200 | 6.9 ± 6.8 | 3 ± 1 |
| C/C(=C\C(=O)CC(C)C(=O)O)[C@H]1CC(=O)[C@@]2(C)C3=C(C(=O)C[C@]12C)[C@@]1(C)CCC(=O)C(C)(C)[C@@H]1CC3=O (stereo partly shown) [Compound 15, Ganoderenic acid F] | – | – | 34.2 ± 4.7 | – | – | – | 111 ± 17.9 | 53.1 ± 1.6 | 62.8 ± 4 |
| C/C(=C\C(=O)CC(C)C(=O)O)C1CC(O)C2(C)C3=C(C(=O)CC12C)C1(C)CCC(O)C(C)(C)C1CC3O (stereo not shown) [Compound 16, Ganoderenic acid C] | 27.9 ± 0.3 | – | 27.2 ± 0.5 | – | 30.6 ± 4.5 | > 200 | – | – | – |
| CC(CC(=O)C[C@@H](C)[C@H]1CC(=O)[C@@]2(C)C3=C(C(=O)[C@@H](O)[C@]12C)[C@@]1(C)CC[C@H](O)C(C)(C)[C@@H]1CC3=O)C(=O)O (stereo partly shown) [Compound 18, Ganoderic acid C6] | – | – | 25.7 ± 1.3 | – | – | – | > 200 | 17.8 ± 1.2 | 15.6 ± 22.3 |
| C[C@H](CC(=O)C[C@@H](C)[C@H]1CC(=O)[C@@]2(C)C3=C(C(=O)C[C@]12C)[C@@]1(C)CCC(=O)C(C)(C)[C@@H]1C[C@@H]3O)C(=O)O [Compound 19, Ganoderic acid C1] | – | – | 26.2 ± 4.1 | – | – | – | > 200 | 21.1 ± 4.1 | 43.3 ± 6.1 |
| C/C(=C\CC[C@@H](C)[C@H]1CC[C@@]2(C)C3=C(CC[C@]12C)[C@@]1(C)CCC(=O)C(C)(C)[C@@H]1CC3=O)C(=O)O [Compound 20, Ganoderic acid DM] | – | – | 29.4 ± 3.8 | – | – | – | > 200 | 50.4 ± 1.5 | 55.2 ± 0.7 |
| CC(CC(=O)C[C@@H](C)[C@H]1C[C@H](O)[C@@]2(C)C3=C(C(=O)C[C@]12C)[C@@]1(C)CCC(=O)C(C)(C)[C@@H]1CC3)C(=O)O (stereo partly shown) [Compound 21, Ganolucidic acid A] | – | – | 16.7 ± 3.4 | – | – | – | > 200 | 19.4 ± 2.7 | 49.8 ± 7.7 |
| C/C(=C\[C@@H](O)C[C@@H](C)[C@H]1CC(=O)[C@@]2(C)C3=C(C(=O)C[C@]12C)[C@@]1(C)CC[C@H](O)C(C)(C)[C@@H]1CC3=O)C(=O)O [Compound 22, Ganoderic acid Zeta] | 35.9 ± 5.3 | – | 17.7 ± 2.4 | – | 0.0 | > 200 | – | – | – |
| C/C(=C\[C@@H](O)C[C@@H](C)[C@H]1CC(=O)[C@@]2(C)C3=C(C(=O)C[C@]12C)[C@@]1(C)CCC(=O)C(C)(C)[C@@H]1C[C@@H]3O)C(=O)O [Compound 23, Ganoderic acid LM2] | – | – | 12.7 ± 9.6 | – | – | – | > 200 | 40.9 ± 6.2 | 67.1 ± 5.2 |
| CC(=O)O[C@@H]1C(=O)C2=C(C(=O)C[C@H]3C(C)(C)C(=O)CC[C@]23C)[C@]2(C)C(=O)C[C@H]([C@H](C)CC(=O)CC(C)C(=O)O)[C@@]12C (stereo partly shown) [Compound 24, Ganoderic acid F] | – | – | 14.8 ± 2.6 | – | – | – | > 200 | 12.9 ± 11.4 | 48.6 ± 7.4 |
| C/C(=C\CC[C@@H](C)[C@H]1CC[C@@]2(C)C3=CC[C@H]4C(C)(C)C(=O)CC[C@]4(C)C3=CC[C@]12C)CO [Compound 25, Ganoderol A] | – | – | 15.9 ± 3.7 | – | – | – | 20.4 ± 0.9 | 48.3 ± 2.2 | 77.1 ± 0.4 |
| C/C(=C\CC[C@@H](C)[C@H]1CC[C@@]2(C)C3=CC[C@H]4C(C)(C)[C@@H](O)CC[C@]4(C)C3=CC[C@]12C)CO [Compound 26, Ganoderol B] | – | – | 21.8 ± 3.5 | – | – | – | > 200 | 51 ± 2.6 | 71.6 ± 2.1 |
| C[C@H](CCC=C(CO)CO)[C@H]1CC[C@@]2(C)C3=CC[C@H]4C(C)(C)C(=O)CC[C@]4(C)C3=CC[C@]12C [Compound 27, Ganoderiol F] | – | – | 29.5 ± 4.3 | – | – | – | > 200 | 52.9 ± 2 | 33.6 ± 12.1 |
| C[C@H](CC[C@H](O)C(C)(C)O)[C@H]1CC[C@@]2(C)C3=CC[C@H]4C(C)(C)C(=O)CC[C@]4(C)C3=CC[C@]12C [Compound 28, Ganodermanondiol] | – | – | 24.3 ± 1.7 | – | – | – | 64.9 ± 10 | – | 87.9 ± 1.8 |
| C[C@H](CC[C@H](O)[C@](C)(O)CO)[C@H]1CC[C@@]2(C)C3=CC[C@H]4C(C)(C)C(=O)CC[C@]4(C)C3=CC[C@]12C [Compound 29, Ganodermanontriol] | – | – | 10.3 ± 3.5 | – | – | – | > 200 | 35.3 ± 5.2 | 60.5 ± 6.8 |
| C/C(C=O)=C\CC[C@@H](C)[C@H]1CC[C@@]2(C)C3=CC[C@H]4C(C)(C)[C@@H](O)CC[C@]4(C)C3=CC[C@]12C [Compound 30, Lucialdehyde A] | 57.6 ± 1.7 | – | 24.5 ± 1.6 | 164 ± 18 | 67.1 ± 5.7 | 34.7 ± 5.5 | – | – | – |
| C/C(C=O)=C\CC[C@@H](C)[C@H]1CC[C@@]2(C)C3=C(CC[C@]12C)[C@@]1(C)CCC(=O)C(C)(C)[C@@H]1CC3=O [Compound 31, Lucialdehyde B] | – | – | 30.4 ± 3.5 | – | – | – | 7.1 ± 0.3 | 51.4 ± 2.5 | 86.7 ± 0.8 |
| Ganoderenic acid D [Compound 17] | 50.4 ± 3.0 | – | 35.9 ± 2.8 | 123 ± 22.5 | 74.2 ± 2.2 | > 200 | – | – | – |

— paper PMC4549708, “Inhibition of neuraminidase by Ganoderma triterpenoids and implications for neuraminidase inhibitor design” (Scientific Reports, 2015)
